Source: EP1124556B1, “USE OF OPTICALLY PURE (R)-TOFISOPAM FOR TREATING AND PREVENTING ANXIETY DISORDERS” (priority 1998, dated 2000)
Where “and” joins values, the source holds several entries; their conditions need not be identical. Identical values can stand only once.

Columns and labels:
[1] = Conformer interconversion in solution; format: physicochemical
Description: The enantiomers of tofisopam were resolved by chiral chromatography. For example, tofisopam (42.8mg dissolved in acetonitrile) was loaded onto a Chirobiotic V column (ASTEC, Whippany, NJ). Elution of the compounds with MTBE/ACN 90/10 (v/v), 40ml/min, was monitored at 310nm, 2mm path. The R(+) enantiomer was the first compound to elute from the column. The R(+) enantiomer was collected, dried and stored for use in biological assays. R(-)-tofisopam ("A" ' ) , S (-/+) tofisopam ("B" and "B' ") , and residual R(+)-tofisopam ("A") co-eluted and was collected in a subsequent fraction (e.g., FIG. 1, fraction 2). Approximately 20% of the R(+)-tofisopam in fraction 1 is converted into R(-)-tofisopam if left in solution for 24 hours. A 80/20 stable equilibrium (R+/R-) was observed between the two conformers in MTBE/ACN (90/10) solution at room temperature.

[2] = cited from earlier work
Male Long Evans rats = assay: Head-twitch response assay (potentiation of 5-MeODMT-induced head-twitches) for anxiolytic activity; format: in vivo; set-up: Score: scale not given here; conditions: for Head Twitch: one hour before interperitoneal 3mg/kg 5-MeODMT, number of head-twitches over 1-5 minute period post injection, individual rats No. 1-3; for Score: group of 3 rats
Description: Dry preparations of tofisopam, R-tofisopam or S-tofisopam were dissolved in 2% Tween 80/5% DMSO for oral administration in a blind assay. Diazepam (Sigma, U.S.A.) was similarly dissolved in DMSO (Merck, Germany), distilled water and Tween 80 (Wako Pure Industries, Ltd., Japan).
Male Long Evans rats provided by animal breeding center of MDS Panlabs Taiwan, Ltd., were used. Space allocation for animals was as follows: 45 x 23 x 15 cm for 6 rats. Rats were housed in APEC® (Allentown Gaging, Allentown, NJ 08501, U.S.A.) cages in a positive pressure isolator (NuAire® , Mode: Nu-605, airflow velocity 50± 5 ft/min, HEPA Filter). All animals were maintained in a controlled temperature (22°C - 24°C) and humidity (60% - 80%) environment with 12 hours light dark cycles for at least one week in MDS Panlabs Taiwan laboratory prior to being used. Free access to standard lab chow for rats (Fwusow Industry Co., Limited, Taiwan) and tap water was granted. All aspects of this work including housing, experimentation and disposal of animals were performed in general accordance with the International Guiding Principles for Biomedical Research Involving Animals (CIOMS Publication No. ISBN 92 90360194, 1985).
Moser, P.C., "The Effect of Novel Axiolytics on the Head-Twitch Response in Mice" British J. Pharmacol Suppl. 99:248P (1990) . Based on those assays, test substances were administered orally to the rats one hour before interperitoneal injection of 3mg/kg 5-MeODMT. The number of head-twitches over a 1-5 minute period post injection were recorded (Table 1).

dopamine (D2L) receptor = dopamine (D2L) receptor (Homo sapiens, UniProt P14416); assay: Dopamine receptor binding (preliminary results)
patients = conditions: cited from earlier work
[3] = in vivo; cited from earlier work
benzodiazepine receptor = conditions: cited from earlier work
site II of HSA = site II of HSA (Homo sapiens, UniProt P02768); conditions: cited from earlier work
Sequence of site II of HSA (P02768 25-609): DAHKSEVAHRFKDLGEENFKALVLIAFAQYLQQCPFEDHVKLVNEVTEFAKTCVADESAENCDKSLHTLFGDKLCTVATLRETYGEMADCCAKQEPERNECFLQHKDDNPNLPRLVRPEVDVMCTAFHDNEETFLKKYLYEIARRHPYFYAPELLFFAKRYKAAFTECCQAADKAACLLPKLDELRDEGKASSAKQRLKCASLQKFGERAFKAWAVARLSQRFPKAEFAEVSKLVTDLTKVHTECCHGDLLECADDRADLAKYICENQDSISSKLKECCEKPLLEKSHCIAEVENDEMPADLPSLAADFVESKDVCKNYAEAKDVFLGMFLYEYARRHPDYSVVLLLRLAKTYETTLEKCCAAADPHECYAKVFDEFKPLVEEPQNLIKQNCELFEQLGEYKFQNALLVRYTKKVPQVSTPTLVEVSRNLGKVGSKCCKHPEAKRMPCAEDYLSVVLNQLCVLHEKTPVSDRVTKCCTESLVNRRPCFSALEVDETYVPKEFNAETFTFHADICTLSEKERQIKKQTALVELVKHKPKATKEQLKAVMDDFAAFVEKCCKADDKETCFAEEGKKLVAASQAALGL

Sequence of dopamine (D2L) receptor (P14416 whole entry): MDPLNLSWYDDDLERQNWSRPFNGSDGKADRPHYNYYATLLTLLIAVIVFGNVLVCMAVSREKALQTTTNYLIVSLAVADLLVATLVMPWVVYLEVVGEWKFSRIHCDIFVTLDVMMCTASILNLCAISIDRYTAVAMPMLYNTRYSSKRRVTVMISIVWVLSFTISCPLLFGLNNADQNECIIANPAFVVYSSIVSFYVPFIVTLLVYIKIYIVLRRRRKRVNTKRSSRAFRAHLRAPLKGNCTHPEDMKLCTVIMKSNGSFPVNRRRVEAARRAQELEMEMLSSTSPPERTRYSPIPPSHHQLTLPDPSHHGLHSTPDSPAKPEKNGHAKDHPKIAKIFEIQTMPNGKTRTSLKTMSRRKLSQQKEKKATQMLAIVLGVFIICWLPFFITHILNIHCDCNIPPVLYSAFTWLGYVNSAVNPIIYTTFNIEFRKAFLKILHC

Structure (SMILES): CC[C@H]1C(C)=NN=C(c2ccc(OC)c(OC)c2)c2cc(OC)c(OC)cc21 [R(+)-tofisopam]
- stable equilibrium (R+/R-) ([1]; MTBE/ACN (90/10) solution at room temperature): 80/20
- converted into R(-)-tofisopam ([1]; left in solution for 24 hours): Approximately 20%

Structure (SMILES): O=C1CCC(N2C(=O)c3ccccc3C2=O)C(=O)N1 (racemic) [racemic thalidomide]
- solubility relative to its separate isomers [2]: ten times less soluble

Structure (SMILES): CN1C(=O)CN=C(c2ccccc2)c2cc(Cl)ccc21 [Diazepam]
- Head Twitch (Male Long Evans rats; PO 10 mg/kg): 5 and 1 and 9
- Score (Male Long Evans rats; PO 10 mg/kg): 2

Structure (SMILES): CC[C@H]1C(C)=NN=C(c2ccc(OC)c(OC)c2)c2cc(OC)c(OC)cc21 [R-tofisopam, R-1-(3,4-dimethoxyphenyl)-5-ethyl-7,8-dimethoxy-4-methyl-5H-2,3-benzodiazepine]
- Head Twitch (Male Long Evans rats; PO 30 mg/kg): 0 and 2 and 1
- Score (Male Long Evans rats; PO 30 mg/kg): 1
- side effects related to binding to the dopamine (D2L) receptor (dopamine (D2L) receptor): cannot manifest side effects related to binding to the dopamine (D2L) receptor

Structure (SMILES): CCC1C(C)=NN=C(c2ccc(OC)c(OC)c2)c2cc(OC)c(OC)cc21 (racemic) [tofisopam, 1-(3,4-dimethoxy-phenyl) - 4-methyl-5-ethyl-7,8-dimethoxy-5H-2,3-benzodiazepine]
- Head Twitch (Male Long Evans rats; PO 30 mg/kg): 0
- Score (Male Long Evans rats; PO 30 mg/kg): 0
- patients reporting side effects during treatment (patients; double-blind study, 4 weeks, 57 outpatients with anxiety and depression): twenty-one
- anxiolytic effect (patients; multicenter study, 325 patients, 3 weeks, 150-1300 mg/day): effective anxiolytic
- anticonvulsive, muscle relaxant or sedative effects [3]: not have anticonvulsive, muscle relaxant or sedative effects
- binding to the benzodiazepine receptor (benzodiazepine receptor): does not bind to the benzodiazepine receptor
- binding of BDZs to their receptors (benzodiazepine receptor; in vivo and in vitro, after acute and chronic treatment): enhances the binding of BDZs to their receptors

Structure (SMILES): CC[C@@H]1C(C)=NN=C(c2ccc(OC)c(OC)c2)c2cc(OC)c(OC)cc21 [S-tofisopam]
- Head Twitch (Male Long Evans rats; PO 30 mg/kg): 0
- Score (Male Long Evans rats; PO 30 mg/kg): 0

Structure (SMILES): N[C@@H](Cc1c[nH]c2ccccc12)C(=O)O [L-Tryptophan]
- affinity for site II of HSA relative to the other enantiomer (site II of HSA): about 100 times
